Patent US11912686B2 (Gilead Sciences, Inc., priority 2020, dated 2024)

The molecules below were run against human LPAR1 (Homo sapiens (Human), UniProt Q92633) (assay: LPAR1 intracellular calcium mobilization assay (antagonist mode, FLIPR)). Details: CHO-K1 EDG2 cells expressing human LPAR1, LPA 18:2 at EC80 (100 nM), test compound 0.5 nM to 10 μM.
Sequence of human LPAR1 (Q92633 whole entry): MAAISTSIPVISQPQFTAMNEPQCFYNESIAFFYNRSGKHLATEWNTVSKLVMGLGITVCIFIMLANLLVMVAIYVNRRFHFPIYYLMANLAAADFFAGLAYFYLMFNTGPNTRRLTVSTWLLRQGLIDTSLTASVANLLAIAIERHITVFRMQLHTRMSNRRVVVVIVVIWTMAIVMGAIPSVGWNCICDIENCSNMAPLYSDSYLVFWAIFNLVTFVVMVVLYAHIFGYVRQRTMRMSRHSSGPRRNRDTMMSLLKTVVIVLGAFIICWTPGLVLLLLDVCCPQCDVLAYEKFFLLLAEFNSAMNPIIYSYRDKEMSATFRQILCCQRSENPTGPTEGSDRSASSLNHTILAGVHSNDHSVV
Format: cell-based
`C[C@@H](OC(=O)Nc1c(-c2ccc(NC(=O)C34CC(Cl)(C3)C4)cn2)nnn1C)c1cccnc1Cl` [Compound 82, (R)-1-(2-chloropyridin-3-yl)ethyl (4-(5-(3-chlorobicyclo[1.1.1]pentane-1-carboxamido)pyridin-2-yl)-1-methyl-1H-1,2,3-triazol-5-yl)carbamate] showed an EC50 of 20.4 nM. `C[C@@H](C#N)C(=O)Nc1ccc(-c2nnn(C)c2NC(=O)O[C@H](C)c2cccnc2Cl)nc1` [Compound 204, (R)-1-(2-chloropyridin-3-yl)ethyl (4-(5-((S)-2-cyanopropanamido)pyridin-2-yl)-1-methyl-1H-1,2,3-triazol-5-yl)carbamate] showed an EC50 of 132 nM. With `C[C@@H](OC(=O)Nc1c(-c2ccc(NC(=O)C3(C#N)CNC3)cn2)nnn1C)c1cc(F)cnc1F` [Compound 297, (R)-1-(2,5-difluoropyridin-3-yl)ethyl (4-(5-(3-cyanoazetidine-3-carboxamido)pyridin-2-yl)-1-methyl-1H-1,2,3-triazol-5-yl)carbamate] the EC50 was 354 nM. In the case of `Cc1ncc(F)cc1[C@@H](C)OC(=O)Nc1c(-c2ccc(NC(=O)C3CC(F)(F)C3)cn2)nnn1C` [Compound 175, (R)-1-(5-fluoro-2-methylpyridin-3-yl)ethyl (4-(5-(3,3-difluorocyclobutane-1-carboxamido)pyridin-2-yl)-1-methyl-1H-1,2,3-triazol-5-yl)carbamate], the EC50 is reported as 35.4 nM. `CC(OC(=O)Nc1c(-c2ccc(NC(=O)C(F)(F)F)cn2)nnn1C)c1cc(Br)cnc1Cl` (centres unmarked) [Compound 13, 1-(5-bromo-2-chloropyridin-3-yl)ethyl (1-methyl-4-(5-(2,2,2-trifluoroacetamido)pyridin-2-yl)-1H-1,2,3-triazol-5-yl)carbamate] was tested, and the EC50 was 148 nM. Molecule `CO[C@H]1C[C@@H](C(=O)Nc2ccc(-c3nnn(C)c3NC(=O)O[C@H](C)c3cccnc3Cl)nc2)C1` [Compound 157, (R)-1-(2-chloropyridin-3-yl)ethyl (4-(5-((1s,3S)-3-methoxycyclobutane-1-carboxamido)pyridin-2-yl)-1-methyl-1H-1,2,3-triazol-5-yl)carbamate] has an EC50 of 74.5 nM. Work on `C[C@@H](OC(=O)Nc1c(-c2ccc(NC(=O)[C@H]3[C@@H]4CC(F)(F)C[C@@H]43)cn2)nnn1C)c1cc(F)cnc1F` (racemic) [Compound 230, (R)-1-(2,5-difluoropyridin-3-yl)ethyl (4-(5-((1RS,5SR,6SR)-3,3-difluorobicyclo[3.1.0]hexane-6-carboxamido)pyridin-2-yl)-1-methyl-1H-1,2,3-triazol-5-yl)carbamate] yielded an EC50 of 26.7 nM. Work on `CNC(=O)Nc1ccc(-c2nnn(C)c2NC(=O)O[C@H](CF)c2cccc(F)c2)nc1` [Compound 187, (S)-2-fluoro-1-(3-fluorophenyl)ethyl (1-methyl-4-(5-(3-methylureido)pyridin-2-yl)-1H-1,2,3-triazol-5-yl)carbamate] yielded an EC50 of 1240 nM. With `C[C@@H](OC(=O)Nc1c(-c2ccc(NC(=O)c3cc(C(F)(F)F)cnc3F)cn2)nnn1C)c1cc(F)cnc1F` [Compound 275, (R)-1-(2,5-difluoropyridin-3-yl)ethyl (4-(5-(2-fluoro-5-(trifluoromethyl)nicotinamido)pyridin-2-yl)-1-methyl-1H-1,2,3-triazol-5-yl)carbamate] the EC50 was 241 nM. Work on `C[C@@H](OC(=O)Nc1c(-c2ccc(NC(=O)C3(C#N)C(C#N)C3(C)C)cn2)nnn1C)c1cccnc1Cl` (stereo partly drawn) [Compound 145, (R)-1-(2-chloropyridin-3-yl)ethyl (4-(5-(1,3-dicyano-2,2-dimethylcyclopropane-1-carboxamido)pyridin-2-yl)-1-methyl-1H-1,2,3-triazol-5-yl)carbamate] yielded an EC50 of 184 nM. Work on `CC(=O)Nc1ccc(-c2nnn(C)c2NC(=O)O[C@H](C)c2cc(Cl)cnc2F)nc1` [Compound 14, (R)-1-(5-chloro-2-fluoropyridin-3-yl)ethyl (4-(5-acetamidopyridin-2-yl)-1-methyl-1H-1,2,3-triazol-5-yl)carbamate] yielded an EC50 of 1200 nM.
